{"source": "paper PMC9516332", "about": "(Frontiers in Oncology, 2022)", "key": {"134 cancer cell lines": {"test_system": "134 cancer cell lines", "test": "Cell viability assay (ATPlite, 72 hours), IC50 on cancer cell line panel"}, "AP-1060 (ETV6-NTRK3)": {"test_system": "AP-1060 (ETV6-NTRK3)", "test": "Cell viability assay", "conditions": "read-out: IC50 in cell proliferation assay"}}, "note": "Read-outs that look alike come from different tables or passages of the source."}
{"smiles": "C[C@H]1Oc2cc(cnc2N)-c2c(nn(C)c2C#N)CN(C)C(=O)c2ccc(F)cc21", "note": "[lorlatinib]", "values": [{"measurement": "IC50", "setting": "134 cancer cell lines; Homo sapiens, LoVo, read-out: IC50 in cell proliferation assay", "value": "> 31.6", "unit": "µM"}, {"measurement": "IC50", "setting": "134 cancer cell lines; Homo sapiens, MCF7, read-out: IC50 in cell proliferation assay", "value": 17, "unit": "µM"}, {"measurement": "IC50", "setting": "134 cancer cell lines; Homo sapiens, MDA-MB-231, read-out: IC50 in cell proliferation assay", "value": "> 31.6", "unit": "µM"}, {"measurement": "IC50", "setting": "134 cancer cell lines; Homo sapiens, MDA-MB-453, read-out: IC50 in cell proliferation assay", "value": "> 31.6", "unit": "µM"}, {"measurement": "IC50", "setting": "134 cancer cell lines; Homo sapiens, MDA-MB-468, read-out: IC50 in cell proliferation assay", "value": "> 31.6", "unit": "µM"}, {"measurement": "IC50", "setting": "134 cancer cell lines; Homo sapiens, MG-63, read-out: IC50 in cell proliferation assay", "value": 8.74, "unit": "µM"}, {"measurement": "IC50", "setting": "134 cancer cell lines; Homo sapiens, MIA PaCa-2, read-out: IC50 in cell proliferation assay", "value": "> 31.6", "unit": "µM"}, {"measurement": "IC50", "setting": "134 cancer cell lines; Homo sapiens, MKN-45, read-out: IC50 in cell proliferation assay", "value": "> 31.6", "unit": "µM"}, {"measurement": "IC50", "setting": "134 cancer cell lines; Homo sapiens, MOLM-13, read-out: IC50 in cell proliferation assay", "value": 21.1, "unit": "µM"}, {"measurement": "IC50", "setting": "134 cancer cell lines; Homo sapiens, MOLT-4, read-out: IC50 in cell proliferation assay", "value": 6.72, "unit": "µM"}, {"measurement": "IC50", "setting": "134 cancer cell lines; Homo sapiens, MV4-11, read-out: IC50 in cell proliferation assay", "value": 15.6, "unit": "µM"}, {"measurement": "IC50", "setting": "134 cancer cell lines; Homo sapiens, MeWo, read-out: IC50 in cell proliferation assay", "value": "> 31.6", "unit": "µM"}, {"measurement": "IC50", "setting": "134 cancer cell lines; Homo sapiens, NCCIT, read-out: IC50 in cell proliferation assay", "value": "> 31.6", "unit": "µM"}, {"measurement": "IC50", "setting": "134 cancer cell lines; Homo sapiens, NCI-H82, read-out: IC50 in cell proliferation assay", "value": 6.06, "unit": "µM"}, {"measurement": "IC50", "setting": "134 cancer cell lines; Homo sapiens, NCI-H460, read-out: IC50 in cell proliferation assay", "value": 18.4, "unit": "µM"}, {"measurement": "IC50", "setting": "134 cancer cell lines; Homo sapiens, NCI-H661, read-out: IC50 in cell proliferation assay", "value": 6.73, "unit": "µM"}, {"measurement": "IC50", "setting": "134 cancer cell lines; Homo sapiens, NCI-H716, read-out: IC50 in cell proliferation assay", "value": 9.52, "unit": "µM"}, {"measurement": "IC50", "setting": "134 cancer cell lines; Homo sapiens, NCI-H1650, read-out: IC50 in cell proliferation assay", "value": 23.9, "unit": "µM"}, {"measurement": "IC50", "setting": "134 cancer cell lines; Homo sapiens, NCI-H1975, read-out: IC50 in cell proliferation assay", "value": 9.89, "unit": "µM"}, {"measurement": "IC50", "setting": "134 cancer cell lines; Homo sapiens, NCI-H2228, read-out: IC50 in cell proliferation assay", "value": 0.000918, "unit": "µM"}, {"measurement": "IC50", "setting": "134 cancer cell lines; Homo sapiens, OVCAR-3, read-out: IC50 in cell proliferation assay", "value": "> 31.6", "unit": "µM"}, {"measurement": "IC50", "setting": "134 cancer cell lines; Homo sapiens, PFSK-1, read-out: IC50 in cell proliferation assay", "value": 7.69, "unit": "µM"}, {"measurement": "IC50", "setting": "134 cancer cell lines; Homo sapiens, RL95-2, read-out: IC50 in cell proliferation assay", "value": 0.035, "unit": "µM"}, {"measurement": "IC50", "setting": "134 cancer cell lines; Homo sapiens, RPMI-7951, read-out: IC50 in cell proliferation assay", "value": 0.818, "unit": "µM"}, {"measurement": "IC50", "setting": "134 cancer cell lines; Homo sapiens, RS4-11, read-out: IC50 in cell proliferation assay", "value": 11.2, "unit": "µM"}, {"measurement": "IC50", "setting": "134 cancer cell lines; Homo sapiens, Rec1, read-out: IC50 in cell proliferation assay", "value": 8.26, "unit": "µM"}, {"measurement": "IC50", "setting": "134 cancer cell lines; Homo sapiens, SHP77, read-out: IC50 in cell proliferation assay", "value": "> 31.6", "unit": "µM"}, {"measurement": "IC50", "setting": "134 cancer cell lines; Homo sapiens, SK-BR-3, read-out: IC50 in cell proliferation assay", "value": "> 31.6", "unit": "µM"}, {"measurement": "IC50", "setting": "134 cancer cell lines; Homo sapiens, SK-N-AS, read-out: IC50 in cell proliferation assay", "value": "> 31.6", "unit": "µM"}, {"measurement": "IC50", "setting": "134 cancer cell lines; Homo sapiens, SK-N-FI, read-out: IC50 in cell proliferation assay", "value": 21.5, "unit": "µM"}, {"measurement": "IC50", "setting": "134 cancer cell lines; Homo sapiens, SK-N-MC, read-out: IC50 in cell proliferation assay", "value": 6.17, "unit": "µM"}, {"measurement": "IC50", "setting": "134 cancer cell lines; Homo sapiens, SK-N-SH, read-out: IC50 in cell proliferation assay", "value": 5.69, "unit": "µM"}, {"measurement": "IC50", "setting": "134 cancer cell lines; Homo sapiens, SNU-5, read-out: IC50 in cell proliferation assay", "value": "> 31.6", "unit": "µM"}, {"measurement": "IC50", "setting": "134 cancer cell lines; Homo sapiens, SNU-16, read-out: IC50 in cell proliferation assay", "value": 31.5, "unit": "µM"}, {"measurement": "IC50", "setting": "134 cancer cell lines; Homo sapiens, SNU-C2B, read-out: IC50 in cell proliferation assay", "value": "> 31.6", "unit": "µM"}, {"measurement": "IC50", "setting": "134 cancer cell lines; Homo sapiens, SU-DHL-1, read-out: IC50 in cell proliferation assay", "value": 0.008, "unit": "µM"}, {"measurement": "IC50", "setting": "134 cancer cell lines; Homo sapiens, SU-DHL-6, read-out: IC50 in cell proliferation assay", "value": 24.1, "unit": "µM"}, {"measurement": "IC50", "setting": "134 cancer cell lines; Homo sapiens, SUP-T1, read-out: IC50 in cell proliferation assay", "value": 23.2, "unit": "µM"}, {"measurement": "IC50", "setting": "134 cancer cell lines; Homo sapiens, SW48, read-out: IC50 in cell proliferation assay", "value": 8.62, "unit": "µM"}, {"measurement": "IC50", "setting": "134 cancer cell lines; Homo sapiens, SW480, read-out: IC50 in cell proliferation assay", "value": "> 31.6", "unit": "µM"}, {"measurement": "IC50", "setting": "134 cancer cell lines; Homo sapiens, SW626, read-out: IC50 in cell proliferation assay", "value": 8.56, "unit": "µM"}, {"measurement": "IC50", "setting": "134 cancer cell lines; Homo sapiens, SW780, read-out: IC50 in cell proliferation assay", "value": 16, "unit": "µM"}, {"measurement": "IC50", "setting": "134 cancer cell lines; Homo sapiens, SW837, read-out: IC50 in cell proliferation assay", "value": "> 31.6", "unit": "µM"}, {"measurement": "IC50", "setting": "134 cancer cell lines; Homo sapiens, SW872, read-out: IC50 in cell proliferation assay", "value": 6.65, "unit": "µM"}, {"measurement": "IC50", "setting": "134 cancer cell lines; Homo sapiens, SW900, read-out: IC50 in cell proliferation assay", "value": 15.1, "unit": "µM"}, {"measurement": "IC50", "setting": "134 cancer cell lines; Homo sapiens, SW948, read-out: IC50 in cell proliferation assay", "value": 17, "unit": "µM"}, {"measurement": "IC50", "setting": "134 cancer cell lines; Homo sapiens, SW982, read-out: IC50 in cell proliferation assay", "value": 0.052, "unit": "µM"}, {"measurement": "IC50", "setting": "134 cancer cell lines; Homo sapiens, SW-620, read-out: IC50 in cell proliferation assay", "value": 17, "unit": "µM"}, {"measurement": "IC50", "setting": "134 cancer cell lines; Homo sapiens, T98G, read-out: IC50 in cell proliferation assay", "value": 11.4, "unit": "µM"}, {"measurement": "IC50", "setting": "134 cancer cell lines; Homo sapiens, TCC-SUP, read-out: IC50 in cell proliferation assay", "value": "> 31.6", "unit": "µM"}, {"measurement": "IC50", "setting": "134 cancer cell lines; Homo sapiens, THP-1, read-out: IC50 in cell proliferation assay", "value": "> 31.6", "unit": "µM"}, {"measurement": "IC50", "setting": "134 cancer cell lines; Homo sapiens, U2OS, read-out: IC50 in cell proliferation assay", "value": 8.64, "unit": "µM"}, {"measurement": "IC50", "setting": "134 cancer cell lines; Homo sapiens, U-87 MG, read-out: IC50 in cell proliferation assay", "value": "> 31.6", "unit": "µM"}, {"measurement": "IC50", "setting": "134 cancer cell lines; Homo sapiens, U-118-MG, read-out: IC50 in cell proliferation assay", "value": "> 31.6", "unit": "µM"}, {"measurement": "IC50", "setting": "134 cancer cell lines; Homo sapiens, UMUC3, read-out: IC50 in cell proliferation assay", "value": "> 31.6", "unit": "µM"}, {"measurement": "IC50", "setting": "134 cancer cell lines; Hs766T, read-out: IC50 in cell proliferation assay", "value": "> 31.6", "unit": "µM"}, {"measurement": "IC50", "setting": "134 cancer cell lines; L-82, read-out: IC50 in cell proliferation assay", "value": 0.00122, "unit": "µM"}, {"measurement": "IC50", "setting": "134 cancer cell lines; Rh30, read-out: IC50 in cell proliferation assay", "value": 9.22, "unit": "µM"}, {"measurement": "IC50", "setting": "AP-1060 (ETV6-NTRK3)", "value": 10.7, "unit": "µM"}]}
